# Source: PubChem BioAssay (NCI)
# Where “and” joins values, the source holds several entries; their conditions need not be identical. Equal entries are not always repeated.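 Method: 48-hour compound exposure of cells in 96-well plates, five concentrations, linear interpolation of endpoints. Here, GI50 denotes the concentration required for 50% inhibition of growth. TGI: total growth inhibition.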 Where a SMILES comes first, the peptide text is derived from it. [ ]: non-standard residue; d: D form. The star is where a group is joined. NMeF = CN[C@@H](Cc1ccccc1)C(=O)O; NMeV = CN[C@H](C(=O)O)C(C)C; Boc = CC(C)(C)OC(=O)*; OBn = c1ccc(CO*)cc1
# Legend:
# Assay in all cases: NCI tumour cell line growth inhibition, 48 h
# [1] = test system: HOP-18 NSCLC
# [2] = test system: DMS 273 small cell lung
# [3] = test system: SNB-78 CNS
# [4] = test system: M19-MEL melanoma
# [5] = test system: XF 498 CNS
# [6] = test system: RXF-631 renal
# [7] = test system: LXFL 529 NSCLC
# [8] = test system: DMS 114 small cell lung
# [9] = test system: MDA-N
# [10] = test system: P388/ADR leukemia
# [11] = test system: P388 leukemia
# [12] = test system: SN12K1 renal
Compound,TGI [1],TGI [2],TGI [3],TGI [4],TGI [5],TGI [6],TGI [7],TGI [8],TGI [9],also measured
Cc1ccc(C(=O)C#Cc2c[nH]c(=O)[nH]c2=O)cc1,32.6 µM,38.6 µM,28.5 µM,36.5 µM,–,–,–,–,–,–
CN(C)C1=NC2=S(SC(Nc3ccccc3)=N2)S1 (configuration not stated),91.4 µM,66 µM,> 100 µM,> 100 µM,50.5 µM,> 100 µM,62.9 µM,42.6 µM,–,–
COC(=O)C1=C(c2ccc3c(c2)OCO3)OC(c2ccc3c(c2)OCO3)C1 (configuration not stated),> 100 µM,> 100 µM,> 100 µM,> 100 µM,> 100 µM,> 100 µM,> 100 µM,> 100 µM,–,–
COc1ccccc1C(N)c1ccccc1 (configuration not stated),> 100 µM,> 100 µM,> 100 µM,> 100 µM,–,–,> 100 µM,> 100 µM,–,–
CCCCCCCCCCCCCCCCCC(=O)OCC(COC1OC(CS(=O)(=O)O)C(O)C(O)C1O)OC(=O)CCCCCCCCCCCCCCCCC (configuration not stated),–,–,–,–,–,–,–,–,> 100 µM,–
CC(C)[C@@H](C(=O)N1CCC[C@H]1C(=O)OCc1ccccc1)N(C)C(=O)[C@H](C(C)C)N(C)C(=O)[C@H](Cc1ccccc1)N(C)C(=O)[C@H](NC(=O)OC(C)(C)C)C(C)C (Boc-[dV][NMeF][NMeV][NMeV]P-OBn),> 100 µM,> 100 µM,> 100 µM,> 100 µM,> 100 µM,–,> 100 µM,> 100 µM,–,–
N#CCCSC(=S)C1CCCC1=N (configuration not stated),–,–,–,–,–,–,–,–,> 100 µM,–
NC(=O)Nc1c([N+](=O)[O-])cc(C(F)(F)F)cc1[N+](=O)[O-],–,> 100 µM,> 100 µM,–,> 100 µM,> 100 µM,> 100 µM,–,–,–
O=C(O)c1cccc2cccc(C(=O)O)c12.[Hg],35.3 µM,31.4 µM,–,23.3 µM,–,–,28.1 µM,21.5 µM,–,GI50 [1]: 18.6 µM; GI50 [2]: 15.4 µM; GI50 [7]: 14.6 µM; GI50 [8]: 3.8 µM; GI50 [4]: 10.4 µM
COc1ccc(C(=O)CC(=O)C(=O)Nc2ccc(C)c(C)c2)cc1,> 100 µM,> 100 µM,> 100 µM,> 100 µM,–,> 100 µM,> 100 µM,> 58.5 µM,–,–
OCC1OC2OC3C(CO)OC(OC4C(CO)OC(OC5C(CO)OC(OC6C(CO)OC(OC7C(CO)OC(OC1C(O)C2O)C(O)C7O)C(O)C6O)C(O)C5O)C(O)C4O)C(O)C3O (configuration not stated) (tested in a mixture with another compound),–,–,–,–,–,–,–,–,39.9 µM,–
NCCCNCCSSC/C=C\CSSCCNCCCN,> 100 µM,> 100 µM,> 100 µM,> 100 µM,> 100 µM,–,> 100 µM and 88.4 µM,> 100 µM,–,GI50 [3]: 55 µM and 24.8 µM
NC(=O)CCC(NC(=O)Cc1ccccc1)C(=O)O (configuration not stated) (tested in a mixture with another compound),> 8130 µM,> 2470 µM,–,> 8130 µM,–,–,> 8130 µM,> 8130 µM,–,–
O=C1NC(c2c(Cl)cccc2Cl)Nc2ccccc21 (configuration not stated),–,–,–,–,–,–,–,–,70.5 µM,–
COC(=O)C(Cc1ccccc1)NC(=O)Cn1ccnc1[N+](=O)[O-] (configuration not stated),> 100 µM,> 100 µM,–,> 100 µM,> 100 µM,> 100 µM,> 100 µM,> 100 µM,–,–
COC(=O)CS(=O)c1ccccc1 (configuration not stated),–,84.4 µM,> 100 µM,> 100 µM,> 100 µM,–,> 100 µM,56.5 µM,–,–
OCC1OC(n2cnc3c2NC=NC[C@H]3O)CC1O (some centres not stated),308 µM and > 588 µM,500 µM and > 588 µM,500 µM and > 588 µM,460 µM and > 588 µM,498 µM,500 µM and > 588 µM,> 588 µM,455 µM and > 588 µM,> 500 µM,GI50 [6]: 158 µM and > 588 µM; GI50 [1]: 284 µM and > 588 µM; TGI [10]: 448 µM; TGI [11]: 500 µM; GI50 [2]: > 588 µM; GI50 [7]: > 588 µM; GI50 [3]: > 588 µM; GI50 [8]: > 588 µM; GI50 [4]: > 588 µM; TGI [12]: 467 µM
CCOC(=O)C(=O)Nc1c(C)cccc1C(C)C,> 100 µM,> 100 µM,> 100 µM,> 100 µM,> 100 µM,> 100 µM,> 100 µM,> 100 µM,–,–

Compound,TGI [1],TGI [2],TGI [3],TGI [4],TGI [5],TGI [6],TGI [7],TGI [8],TGI [9],also measured
CCOC(=O)NC(=O)c1cn(CCCOC(=O)NCCCCCCNC(=O)OCCCn2cc(C(=O)NC(=O)OCC)c(=O)[nH]c2=O)c(=O)[nH]c1=O,> 100 µM,> 100 µM,> 100 µM,> 100 µM,–,–,> 100 µM,34.1 µM,–,–
COc1ccc(NC(=O)CC(=O)N2N=C(N(CCC#N)c3cccc(C)c3)CC2c2ccccc2)cc1 (configuration not stated),> 100 µM,> 100 µM,> 100 µM,> 100 µM,–,–,> 100 µM,–,–,–
CC(C(=O)O)/C(=C\c1ccc2c(c1)OCO2)C(=O)O (configuration not stated),> 100 µM,> 100 µM,–,> 100 µM,> 100 µM,> 100 µM,> 100 µM,> 100 µM,> 100 µM,–
CC1=NC(C(C)C)C(=O)O1 (configuration not stated),> 100 µM,> 100 µM,> 100 µM,> 100 µM,> 100 µM,> 100 µM,> 100 µM,56.2 µM,–,–
CC(=O)c1ccc(NC(=O)C(=O)C(C(=O)c2ccc(Cl)c(Cl)c2)C2OC(=O)c3ccccc32)cc1 (configuration not stated),90.6 µM,68.5 µM,> 100 µM,–,> 100 µM,–,32.8 µM,46.3 µM,–,–
O=C1c2cc([N+](=O)[O-])cc3cc([N+](=O)[O-])cc(c23)C(=O)N1CCCNCCNCCCN1C(=O)c2cc([N+](=O)[O-])cc3cc([N+](=O)[O-])cc(c23)C1=O,5.63 µM,0.42 µM,1.14 µM,0.752 µM,0.436 µM,–,0.326 µM,1.38 µM,–,–
O=C(O)CP(=O)(O)O,–,–,–,–,–,–,–,–,> 100 µM,–
COC(=O)C1=C(CS(=O)c2ccc([N+](=O)[O-])cc2[N+](=O)[O-])ON(C)C1c1ccccc1 (configuration not stated),> 89.7 µM,> 80.6 µM,> 96.5 µM,> 100 µM,> 100 µM,> 100 µM,> 92.8 µM,> 66.4 µM,–,–
CCC(c1ccc2cc(O)ccc2c1)C(C)(C)C(=O)O (configuration not stated),–,–,–,–,–,–,–,–,> 100 µM,–
Cc1cc(=O)oc2c(OS(C)(=O)=O)c(OS(C)(=O)=O)ccc12,–,–,–,–,–,–,–,–,> 100 µM,–
O=C(c1nc2ccc(Cl)cc2[nH]c1=O)C(O)c1ccc2c(c1)OCO2 (configuration not stated),> 100 µM,> 100 µM,–,> 100 µM,> 100 µM,> 100 µM,> 100 µM,94.1 µM,–,–
CCC[CH2][Sn]1([CH2]CCC)[O]CC(CN2CCOCC2)[O]1 (configuration not stated),–,12 µM,6.36 µM,17.3 µM,3.11 µM,2.71 µM,2.47 µM,4.35 µM,–,GI50 [5]: 1.62 µM; GI50 [6]: 1.41 µM; GI50 [2]: 3.15 µM; GI50 [7]: 1.11 µM; GI50 [3]: 2.12 µM; GI50 [8]: 1.36 µM; GI50 [4]: 3.99 µM
Brc1ccccc1C=NC12CC3CC(CC(C3)C1)C2,> 100 µM,> 100 µM,> 100 µM,> 100 µM,> 100 µM,> 100 µM,> 100 µM,> 100 µM,> 73.8 µM,–
CCOC(=O)N[C@@H]1C2CC(=O)C(O2)[C@@H]1OC (some centres not stated),> 100 µM,–,> 100 µM,> 100 µM,–,–,–,–,–,–
COC1OC(COS(=O)(=O)c2ccc(C)cc2)C(O)C(OS(=O)(=O)c2ccc(C)cc2)C1OS(=O)(=O)c1ccc(C)cc1 (configuration not stated),> 100 µM,> 100 µM,> 100 µM,> 100 µM,–,> 100 µM,> 100 µM,> 100 µM,–,–
CCOC(=O)C(C(=O)OCC)=C1N[C@H](C(=O)OCC)CS1,> 100 µM,–,> 100 µM,> 100 µM,> 100 µM,> 100 µM,> 100 µM,–,–,–
CCCc1nc(NC#N)nc(C(=O)NC23CC4CC(CC(C4)C2)C3)c1C,> 100 µM,> 100 µM,> 100 µM,> 100 µM,–,–,> 100 µM,> 100 µM,–,–
CNC(=O)NC(CCCCNC(=O)OCc1ccccc1)C(=O)OCc1ccccc1 (configuration not stated),–,> 100 µM,> 91.7 µM,40.7 µM,31.8 µM,–,> 100 µM,85.4 µM,44 µM,–
